For test [1], the target named is T1, Tyrosine-protein phosphatase non-receptor type 2 (Homo sapiens, UniProt P17706).
T1 sequence (P17706 whole entry): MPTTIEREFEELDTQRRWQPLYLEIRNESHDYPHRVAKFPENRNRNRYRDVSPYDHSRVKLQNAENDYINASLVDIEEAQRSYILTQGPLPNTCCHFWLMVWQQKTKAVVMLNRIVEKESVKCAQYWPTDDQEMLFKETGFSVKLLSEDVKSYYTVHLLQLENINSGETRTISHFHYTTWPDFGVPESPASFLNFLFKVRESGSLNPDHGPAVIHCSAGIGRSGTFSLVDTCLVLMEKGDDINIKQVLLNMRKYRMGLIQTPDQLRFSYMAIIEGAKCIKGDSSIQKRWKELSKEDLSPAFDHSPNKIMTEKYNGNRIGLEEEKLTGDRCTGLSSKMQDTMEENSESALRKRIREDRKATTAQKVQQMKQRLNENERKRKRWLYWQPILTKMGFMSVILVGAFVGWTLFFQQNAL
Nature of the test: Inhibition of recombinant human TCPTP (1 to 317 residues) expressed in Escherichia coli using DifMup as substrate preincubated for 30 mins followed by substrate addition and measured immediately.

Test [2] has as its target T2, Tyrosine-protein phosphatase non-receptor type 1 (Homo sapiens, UniProt P18031).
T2 sequence (P18031 whole entry): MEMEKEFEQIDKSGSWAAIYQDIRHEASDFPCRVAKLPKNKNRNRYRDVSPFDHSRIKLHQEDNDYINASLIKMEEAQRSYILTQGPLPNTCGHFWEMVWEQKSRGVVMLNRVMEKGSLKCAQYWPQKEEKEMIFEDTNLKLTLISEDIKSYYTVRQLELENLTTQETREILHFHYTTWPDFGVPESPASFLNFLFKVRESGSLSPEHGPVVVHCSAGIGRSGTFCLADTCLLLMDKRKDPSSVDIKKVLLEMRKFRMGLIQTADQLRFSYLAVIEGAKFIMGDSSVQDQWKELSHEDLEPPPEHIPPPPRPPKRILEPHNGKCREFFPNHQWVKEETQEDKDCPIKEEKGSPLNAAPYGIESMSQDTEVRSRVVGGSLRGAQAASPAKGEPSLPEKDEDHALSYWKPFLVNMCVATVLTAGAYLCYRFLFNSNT
Description: Inhibition of N-terminal GST-tagged recombinant human PTP1B (1 to 321 residues) expressed in Escherichia coli using DifMup as substrate preincubated for 30 mins followed by substrate addition and measured immediately

Test [3] has as its target T2, Tyrosine-protein phosphatase non-receptor type 1. This is another data set of the same source.
Description: Binding affinity to N-terminal GST-tagged recombinant human PTP1B (1 to 321 residues) expressed in Escherichia coli assessed as dissociation constant and measured for 120 sec by biolayer interferometry
The subject of another test is BT-474. Nature of the test: Growth inhibition of human BT474 cells assessed as reduction in cell viability after 48 hrs by MTT assay. The test is classed as functional. In general terms: Tetrazolium assays rely on reduction of a dye to a coloured formazan, in cell work by metabolically active cells.

Active and inactive are the calls of the source. The calls are words filed in the database; no cut-off is given here.

Usually Ki stands for a dissociation constant, usually derived from enzyme kinetics or from competition with a known ligand. A word on the Kd: it is a measure of binding affinity in units of concentration. A lower Kd goes with a tighter complex. In the case of `CC(C)C(NC1=NS(=O)(=O)c2ccccc21)C(=O)NC[C@@H](NC(=O)CC1(NC(=O)[C@H](CC(C)(C)C)n2cc(CC3CCCCC3)nn2)CCCCC1)C(N)=O` (some centres undefined), the inhibition constant (Ki) was determined as 6.2 µM in test [1] and 3.5 µM in test [2]. In addition, binding in test [3] was put at a Kd of 0.1 µM.
The corresponding values for `CCCCC(NC1=NS(=O)(=O)c2ccccc21)C(=O)NC[C@@H](NC(=O)C1(NC(=O)[C@H](CC(C)(C)C)n2cc(CC3CCCCC3)nn2)CC1)C(N)=O` (some centres undefined) are 7.6 µM, 2.2 µM and 0.21 µM.
By GI50 is commonly meant the concentration at which growth is held to half of that of the control. Regarding `CCC(C)C(NC1=NS(=O)(=O)c2ccccc21)C(=O)NC[C@@H](NC(=O)CC1(NC(=O)[C@H](CC(C)(C)C)n2cc(CC3CCCCC3)nn2)CCCCC1)C(=O)NC(CCCCNC(=O)CCCC[C@@H]1SCC2NC(=O)NC21)C(N)=O` (some centres undefined), the GI50 in the test on BT-474 amounted to 0.9 µM. The figures for the Ki in test [1] and in test [2] were more than 100 µM and 1.7 µM, respectively. In test [3], this molecule registered a Kd of 0.29 µM.
Consider `CCCCC(NC1=NS(=O)(=O)c2ccccc21)C(=O)NCC(NC(=O)CC1(NC(=O)C(C2CC2)n2cc(CC3CCCCC3)nn2)CCCCC1)C(N)=O` (centres undefined), for which the Ki in test [1] was 2.7 µM; in test [2] it was 16.8 µM. In test [3], this molecule gave a dissociation constant Kd of 0.12 µM.
Consider `CCCCC(NC1=NS(=O)(=O)c2ccccc21)C(=O)NC[C@@H](NC(=O)C1CCCC(NC(=O)[C@H](CC(C)(C)C)n2cc(CC3CCCCC3)nn2)C1)C(N)=O` (some centres undefined), for which the inhibition constant Ki was 12.2 µM in test [1] and 3.1 µM in test [2]. In test [3], this molecule displayed an equilibrium dissociation constant (Kd) of 0.09 µM.
For the molecule `CCCCC(NC1=NS(=O)(=O)c2ccccc21)C(=O)NCC(NC(=O)COCCOCCNC(=O)C(C1CC1)n1cc(-c2cccc(OC)c2)nn1)C(N)=O` (centres undefined), the Ki in test [1] is 7.01 µM; in test [2], 2.9 µM. This molecule also displayed an equilibrium dissociation constant (Kd) in test [3] of 0.22 µM.
In the case of `CC(C)C(NC1=NS(=O)(=O)c2ccccc21)C(=O)NCC(NC(=O)c1n[nH]c2ccc([N+](=O)[O-])cc12)C(N)=O` (centres undefined), the outcome in the test with BT-474 was inactive. Further, the inhibition constant Ki in test [1] is more than 20 µM.
As to `CCCCC(NC1=NS(=O)(=O)c2ccccc21)C(=O)NC[C@@H](NC(=O)C1(NC(=O)[C@H](CC(C)(C)C)n2cc(CC3CCCCC3)nn2)CC1)C(=O)NC(CCCCNC(=O)CCCC[C@@H]1SCC2NC(=O)NC21)C(N)=O` (some centres undefined), the Ki in test [1] was determined as 7.6 µM; in test [2] it was 2.2 µM. In test [3], this molecule returned a Kd of 0.21 µM.
As to `CCCCC(NC1=NS(=O)(=O)c2ccccc21)C(=O)NCC(NC(=O)c1ccccc1NC(=O)c1n[nH]c2ccc([N+](=O)[O-])cc12)C(N)=O` (centres undefined), in the test with BT-474, the outcome was inactive. Further, the Ki in test [1] is more than 100 µM; in test [2] it was 1.2 µM. This molecule also showed a Kd in test [3] of 0.27 µM.
As to `CCCCC(NC1=NS(=O)(=O)c2ccccc21)C(=O)NC[C@@H](NC(=O)C1CCCC(NC(=O)[C@H](CC(C)(C)C)n2cc(CC3CCCCC3)nn2)C1)C(=O)NC(CCCCNC(=O)CCCC[C@@H]1SCC2NC(=O)NC21)C(N)=O` (some centres undefined), the inhibition constant (Ki) in test [1] amounted to 12.2 µM; in test [2], 3.1 µM. The affinity in test [3], expressed as Kd, was 0.09 µM.
Regarding `CCCCC(NC1=NS(=O)(=O)c2ccccc21)C(=O)NCC(NC(=O)c1ccccc1NC(=O)c1n[nH]c2ccc([N+](=O)[O-])cc12)C(=O)NC(CCCCNC(=O)CCCC[C@@H]1SCC2NC(=O)NC21)C(N)=O` (some centres undefined), the result in the test with BT-474 was inactive. The Ki in test [1] was more than 100 µM; in test [2], 1.2 µM. The molecule further returned a Kd in test [3] of 0.27 µM.
Turning to `CCCCC(NC1=NS(=O)(=O)c2ccccc21)C(=O)NCC(NC(=O)COCCOCCNC(=O)C(C1CC1)n1cc(-c2cccc(OC)c2)nn1)C(=O)NC(CCCCNC(=O)CCCC[C@@H]1SCC2NC(=O)NC21)C(N)=O` (some centres undefined), the values for the inhibitory constant (Ki) in test [1] and in test [2] were 7.01 µM and 2.9 µM, respectively. Further, in test [3], the Kd is 0.22 µM.
On to `CC(C)C(NC1=NS(=O)(=O)c2ccccc21)C(=O)NC[C@@H](NC(=O)CC1(NC(=O)[C@H](CC(C)(C)C)n2cc(CC3CCCCC3)nn2)CCCCC1)C(=O)NC(CCCCNC(=O)CCCC[C@@H]1SCC2NC(=O)NC21)C(N)=O` (some centres undefined), for which the inhibition constant (Ki) in test [1] amounted to 6.2 µM; in test [2], 3.5 µM. In test [3], this molecule returned a Kd of 0.1 µM.
The corresponding values for `NC(=O)C(CNC(=O)CCCCCNC1=NS(=O)(=O)c2ccccc21)NC(=O)Cc1ccc(CNC(=O)[C@H](C2CC2)n2cc(CC3CCCCC3)nn2)cc1` (some centres undefined) are 3.01 µM, 6.8 µM and 0.11 µM.
With `CCC(C)C(NC1=NS(=O)(=O)c2ccccc21)C(=O)NC[C@@H](NC(=O)CC1(NC(=O)[C@H](CC(C)(C)C)n2cc(CC3CCCCC3)nn2)CCCCC1)C(N)=O` (some centres undefined), the GI50 in the test with BT-474 was found to be 0.9 µM. Also, the results for the Ki in test [1] and in test [2] were more than 100 µM and 1.7 µM, respectively. In addition, in test [3], the dissociation constant Kd stood at 0.29 µM.
As to `NC(=O)C(CCCCNC(=O)CCCC[C@@H]1SCC2NC(=O)NC21)NC(=O)C(CNC(=O)CCCCCNC1=NS(=O)(=O)c2ccccc21)NC(=O)Cc1ccc(CNC(=O)[C@H](C2CC2)n2cc(CC3CCCCC3)nn2)cc1` (some centres undefined), the Ki in test [1] is 3.01 µM; in test [2], 6.8 µM. The molecule also displayed a Kd in test [3] of 0.11 µM.
The corresponding values for `CCC(C)C(NC1=NS(=O)(=O)c2ccccc21)C(=O)NC[C@@H](NC(=O)C1CCCC(NC(=O)C(C2CC2)n2cc(CC3CCCCC3)nn2)C1)C(N)=O` (some centres undefined) are 0.8 µM, 3.4 µM and 0.24 µM.
The corresponding values for `CCCCC(NC1=NS(=O)(=O)c2ccccc21)C(=O)NCC(NC(=O)CC1(NC(=O)C(C2CC2)n2cc(CC3CCCCC3)nn2)CCCCC1)C(=O)NC(CCCCNC(=O)CCCC[C@@H]1SCC2NC(=O)NC21)C(N)=O` (some centres undefined) are 2.7 µM, 16.8 µM and 0.12 µM.
Take `CC(C)C(NC1=NS(=O)(=O)c2ccccc21)C(=O)NCC(NC(=O)c1n[nH]c2ccc([N+](=O)[O-])cc12)C(=O)NC(CCCCNC(=O)CCCC[C@@H]1SCC2NC(=O)NC21)C(N)=O` (some centres undefined): the outcome with BT-474 was inactive. In addition, the Ki in test [1] was more than 20 µM; in test [2] it was 0.25 µM. In test [3], this molecule returned an equilibrium dissociation constant (Kd) of 0.05 µM.
On to `CCC(C)C(NC1=NS(=O)(=O)c2ccccc21)C(=O)NC[C@@H](NC(=O)C1CCCC(NC(=O)C(C2CC2)n2cc(CC3CCCCC3)nn2)C1)C(=O)NC(CCCCNC(=O)CCCC[C@@H]1SCC2NC(=O)NC21)C(N)=O` (some centres undefined), for which the figures for the Ki in test [1] and in test [2] were 0.8 µM and 3.4 µM, respectively. Also, the Kd in test [3] worked out at 0.24 µM.

The values are drawn from ChEMBL document CHEMBL4715689, “Novel PTP1B inhibitors identified by DNA display of fragment pairs” (Bioorg Med Chem Lett, 2016).
